In US4910208A, “Method of inhibiting leukotriene biosynthesis by oral administration of p-aminophenols or derivatives thereof” (E. R. Squibb & Sons, Inc., priority 1988, dated 1990):
Like-named read-outs stand apart in the source and are kept apart here.

Columns and labels:
[1] = test system: SRS-mediated bronchoconstriction; experiment: Standard assay for inhibitors of SRS-mediated bronchoconstriction in sensitized guinea pigs; type: in vivo, guinea pig (male Hartly); conditions: for ED50: Cavia porcellus, po, 1 h; for antiasthmatic activity when administered orally: oral
Experimental: Guinea pigs sensitized to ovalbumin and challenged intravenously with this antigen in the presence of the cyclooxygenase inhibitor, indomethacin (IM), an antihistamine, methapyriline, and a beta-antagonist, propranolol,undergo a delayed (3-13 minutes) bronchospasm, presumed due to the synthesis and release of SRS (leukotriene C, D, and E). A Buxco respiratory mechanics analyzer is used to evaluate the in vivo efficacy of inhibitors of the lipoxygenase pathway in this model of SRS-mediated bronchoconstriction. This system monitors pulmonary air flow, through use of a whole body plethysomgraph, and transpulmonary pressure, from tracheal and intrapleural catheters. Tidal volume is derived from the flow signal by integration, and airway resistance (R) and dynamic compliance (^C dyn) are continuously computed by the system from the primary flow, volume, and pressure parameters. In addition, the system continuously monitors blood pressure and heart rate.
Male Hartly guinea pigs (200 g) ar sensitized by injecting ovalbumin (OA) (10 mg/kg) (each injection also contains 16 mg Amphojel) ip o days 0 and 2. These animals are normally used on days 10-18 following initial sensitization.
On the test day animals are anesthetized by ip injection of urethane (1.2-1.5 g/kg. The jugular vein and carotid artery are catheterized using intramedic PR50 tubing. The trachea is catheterized using intramedic PE240 tubing. Spontaneous respiration is arrested by injecting succinyl choline (2.0 mg/kg, iv) into the jugular vein, and the animal is artificially respirated at 48 breaths/minute with a volume of 4.0 ml/breath. Intramedic PE200 tubing is inserted through the chest wall into the intrapleural space, and the tracheal (by sidearm attachment) and intrapleural cannulas are attached to a single pressure transducer in order to obtain the transpulmonary pressure. The standard protocol requires an initial injection of indomethacin (meglumine salt) (10 mg/kg, iv). Five minutes later antihistamine (methapyrilene, 2 mg/kg, iv) is given, followed one minute later by propranolol (0.1 mg/kg, iv) to induce leukotriene induced bronchoconstriction with no histamine-induced bronchoconstriction and no beta-agonistic bronchoconstriction. Respiratory parameters are then allowed to stabilize for 5-15 minutes. Drugs are tested for oral activity by giving the compound by gavage to 18 hour fasted animals one hour prior to anesthetization. At restabilization, base lines are recorded by the computer for all parameters. To induce bronchoconstriction, a challenge dose of OA (0.4 mg/kg, iv) is given.
Results are expressed as % of baseline values after antigen challenge for R and ^C dyn, and percent inhibition is calculated by comparing % changes in baseline values between control (vehicle) and drug treated test groups.
Statistical significance is determined using a two tailed, unpaired T-test. Drug effects with p<0.05 will be considered significant.
Test compounds were evaluated for their ability to inhibit SRS-mediated changes in dynamic compliance (^C dyn) and resistance (R) as compared to the medicated (indomethacin-methapyrilenepropranolol) control group.

[2] = test system: SRS-mediated bronchoconstriction; experiment: as above; type: in vivo, guinea pig (male Hartly); conditions: 10 mg/kg, iv less than one minute before OA challenge
[3] = 3.0 mg/kg P.O., one hour before i.v. antigen challenge
[4] = 6.0 mg/kg P.O., one hour before i.v. antigen challenge
[5] = 9.0 mg/kg P.O., one hour before i.v. antigen challenge
[6] = 12.5 mg/kg P.O., one hour before i.v. antigen challenge
[7] = 25.0 mg/kg P.O., one hour before i.v. antigen challenge
[8] = P.O., one hour before i.v. antigen challenge, read-out: ED50^Cdyn (dose producing 50% inhibition of SRS-mediated changes in dynamic compliance)
[9] = P.O., one hour before i.v. antigen challenge, read-out: ED50^R (dose producing 50% inhibition of SRS-mediated changes in resistance)
[10] = 5.0 mg/kg P.O., one hour before i.v. antigen challenge
[11] = 50.0 mg/kg P.O., one hour before i.v. antigen challenge

Question: COc1ccc2cc(N(C)c3ccc(O)cc3)ccc2c1 [Example 17] was tested. Which “Dynamic Compliance (Cdyn), % of baseline following antigen challenge (mean ± S.E.)” value (shortened to “Dynamic Compliance (Cdyn), %”) [1, 3] did it give?
Answer: Its value is 19 ± 11 % of Baseline.

Question: What about the “Dynamic Compliance (Cdyn), Inhibition (%)” value [1, 3] of the same compound?
Answer: The value was 0%.

Question: And the “Resistance (R), % of baseline following antigen challenge (mean ± S.E.)” value (“Resistance (R), %” for short) [1, 3]?
Answer: Its value is 467 ± 134 % of Baseline.

Question: What about the “Resistance (R), Inhibition (%)” value [1, 3] of the same compound?
Answer: The value was 0%.

Question: What about the “Dynamic Compliance (Cdyn), %” value [1, 4] of the same compound?
Answer: The value was 31 ± 20 % of Baseline.

Question: What about the “Dynamic Compliance (Cdyn), Inhibition (%)” value [1, 4] of the same compound?
Answer: Its value is 15%.

Question: What about the “Resistance (R), %” value [1, 4] of the same compound?
Answer: Its value is 374 ± 132 % of Baseline.

Question: What about the “Resistance (R), Inhibition (%)” value [1, 4] of the same compound?
Answer: Its value is 1%.

Question: What about the “Dynamic Compliance (Cdyn), %” value [1, 5] of the same compound?
Answer: The value was 64 ± 8 % of Baseline.

Question: And the “Dynamic Compliance (Cdyn), Inhibition (%)” value [1, 5]?
Answer: Its value is 56%.

Question: And the “Resistance (R), %” value [1, 5]?
Answer: The value was 141 ± 28 % of Baseline.

Question: What about the “Resistance (R), Inhibition (%)” value [1, 5] of the same compound?
Answer: The value was 85%.

Question: What about the “Dynamic Compliance (Cdyn), %” value [1, 6] of the same compound?
Answer: Its value is 64 ± 7 % of Baseline.

Question: What about the “Dynamic Compliance (Cdyn), Inhibition (%)” value [1, 6] of the same compound?
Answer: Its value is 56%.

Question: What about the “Resistance (R), %” value [1, 6] of the same compound?
Answer: Its value is 136 ± 10 % of Baseline.

Question: And the “Resistance (R), Inhibition (%)” value [1, 6]?
Answer: The value was 88%.

Question: And the “Dynamic Compliance (Cdyn), %” value [1, 7]?
Answer: The value was 57 ± 10 % of Baseline.

Question: What about the “Dynamic Compliance (Cdyn), Inhibition (%)” value [1, 7] of the same compound?
Answer: Its value is 47%.

Question: What about the “Resistance (R), %” value [1, 7] of the same compound?
Answer: The value was 149 ± 23 % of Baseline.

Question: And the “Resistance (R), Inhibition (%)” value [1, 7]?
Answer: The value was 82%.

Question: And the ED50 [1, 8]?
Answer: Its ED50 is 6 to 9 mg/kg.

Question: And the ED50 [1, 9]?
Answer: Its ED50 is 6 to 9 mg/kg.

Question: And the “inhibition of antigen-induced bronchoconstriction” value ([1]; PO one hour before antigen challenge)?
Answer: Its value is “significantly inhibited”.

Question: What about the “antiasthmatic activity when administered orally” value [1] of the same compound?
Answer: Its value is “exhibit antiasthmatic activity”.

Question: Which results are given for COc1ccc2cc(Nc3ccc(O)cc3)ccc2c1 [Example 2, 4-[(6-Methoxy-2-naphthyl)amino]phenol]?
Answer: Dynamic Compliance (Cdyn), % of baseline following antigen challenge (mean ± S.E.) [1, 10]: 23 ± 7 % of Baseline; Dynamic Compliance (Cdyn), Inhibition (%) [1, 10]: 3%; Resistance (R), % of baseline following antigen challenge (mean ± S.E.) [1, 10]: 335 ± 74 % of Baseline; Resistance (R), Inhibition (%) [1, 10]: 23%; Dynamic Compliance (Cdyn), % of baseline following antigen challenge (mean ± S.E.) [1, 6]: 44 ± 5 % of Baseline; Dynamic Compliance (Cdyn), Inhibition (%) [1, 6]: 33%; Resistance (R), % of baseline following antigen challenge (mean ± S.E.) [1, 6]: 231 ± 39 % of Baseline; Resistance (R), Inhibition (%) [1, 6]: 57%; Dynamic Compliance (Cdyn), % of baseline following antigen challenge (mean ± S.E.) [1, 7]: 62 ± 7 % of Baseline; Dynamic Compliance (Cdyn), Inhibition (%) [1, 7]: 52%; Resistance (R), % of baseline following antigen challenge (mean ± S.E.) [1, 7]: 194 ± 42 % of Baseline; Resistance (R), Inhibition (%) [1, 7]: 69%; Dynamic Compliance (Cdyn), % of baseline following antigen challenge (mean ± S.E.) [1, 11]: 66 ± 4 % of Baseline; Dynamic Compliance (Cdyn), Inhibition (%) [1, 11]: 57%; Resistance (R), % of baseline following antigen challenge (mean ± S.E.) [1, 11]: 149 ± 11 % of Baseline; Resistance (R), Inhibition (%) [1, 11]: 84%; ED50 [1, 8]: 23.8 mg/kg; ED50 [1, 9]: 6 mg/kg; oral activity ([1]; P.O., one hour before antigen challenge): orally active; ED50^Cdyn (dose producing 50% inhibition of SRS-mediated changes in dynamic compliance) ([1]; P.O., one hour before i.v. antigen challenge): 23.8(14.1-51.7) mg/kg; antiasthmatic activity when administered orally [1]: exhibit antiasthmatic activity

Question: How did the “inhibition of bronchoconstriction as measured by effects on R and Cdyn” value [2] turn out when CCCc1c(OCC(O)COc2ccc3c(=O)cc(C(=O)O)oc3c2CCC)ccc(C(C)=O)c1O (stereo not shown) [FPL-55712] was run?
Answer: The value was 100%.

Question: COc1ccc(Nc2ccc(O)cc2)c(CO)c1 [SQ 30,624, 2-[(4-Hydroxyphenyl)amino]-5-methoxybenzenemethanol, reference compound] was tested. Which “Dynamic Compliance (Cdyn), %” value [1, 11] did it give?
Answer: Its value is 4 ± 3 % of Baseline.

Question: And the “Dynamic Compliance (Cdyn), Inhibition (%)” value [1, 11]?
Answer: Its value is 0%.

Question: And the “Resistance (R), %” value [1, 11]?
Answer: The value was 386 ± 64 % of Baseline.

Question: What about the “Resistance (R), Inhibition (%)” value [1, 11] of the same compound?
Answer: The value was 15%.

Question: And the oral activity ([1]; dose of 50 mg/kg P.O.)?
Answer: The oral activity was “orally inactive”.

Question: And the “antiasthmatic activity when administered orally” value [1]?
Answer: Its value is “did not have antiasthmatic activity”.
